One series deals with HepG2 cells. The series is described as follows: Anti-proliferative assay in vitro (SRB) on hepatic cancer cell line HepG2. It is filed as cell-based. The settings on record: Homo sapiens, 72 h exposure, tested from 100 to 0.1 µg/mL, Nd: no detectable activity in the used concentrations, DMSO 1%, read-out: HepG2 IC50 ± SD. On the procedure: (§1) The results of anti-proliferative activity were calculated based on the IC50 (inhibitory concentration 50%), the concentration of a tested compound which inhibits 50% of the cells population. IC50 esteems were determined for each examination independently and mean qualities ± SD are introduced in Table 1. The movement of every subordinate at every fixation was tried in three-fold in a solitary test; which was rehashed 3–5 times. The aftereffects of the investigations on against proliferative action of tried mixes are summed up in Table 1
(§2) Cell lines: Hep-G2 (human hepatic disease) and BALB/3T3 (murine fibroblast) are being kept up in the Institute of Cancer, Cairo, Egypt. All malignant growth cell lines were obtained from American Type Culture Collection (Rockville, Maryland, USA) and kept up in the Institute of Cancer. HepG2 cells were refined in Eagle’s minimum essential medium (EMEM) and supplemented with 10% FBS; DMEM and RPMI1640 were choices for that function also. Suction included new culture medium each 2–3 days. HepG2 cell multiplying time was 48 h. BALB/3T3 cell line was refined in DMEM and enhanced with 2 mM L-glutamine, 10% fetal ox-like serum (GE Healthcare, Logan, UT, USA). To entry cells, cell monolayer with 1× PBS were flushed twice and pre-warmed (37 °C) 0.05% Trypsin-EDTA arrangement was added to cover the lower part of the jar; brooded for 5–7 min. As cells withdrew, the trypsin was killed by including 4× volume of complete development medium with 10% FBS and delicately suspended the cells by pipetting. To abstain from clustering, the phones were not upset by shaking the jar while sitting tight for separation. Split cells 1:4 at regular intervals or 1:8 like clockwork. Societies had been brooded at 37 °C in a humidified climate with 5% CO2.
(§3) All compounds were broken up in DMSO (stock arrangement 10 mg/mL) and consequently weakened in culture medium to arrive at the necessary fixations (going from 100 to 0.1 µg/mL).
(§4) 24 h before expansion of the tried exacerbates, the cells were plated in 96-well plates (Sarstedt, Germany) at thicknesses of 1 × 10^4 cells per well. The examination was performed after 72 h introduction to shifting centralizations of the tried mixes. The in vitro cytotoxic impact of all mixes was analyzed utilizing the SRB measure.
(§5) The subtleties of this strategy were depicted by Skehan et al.. The cells were joined to the lower part of plastic wells by fixing them with cold half TCA (trichloroacetic corrosive, Sigma-Aldrich Chemie GmbH, Steinheim, Germany) on the head of the way of life medium in each well. The plates were hatched at 4 °C for 1 h and afterward washed multiple times with faucet water. The cell material fixed with TCA was recolored with 0.4% sulphorhodamine B (SRB, Sigma-Aldrich Chemie GmbH, Steinheim, Germany) disintegrated in 1% acidic corrosive for 30 min. Unbound color was taken out by flushing (multiple times) in 1% acidic corrosive. The protein-bound color was removed with 10 mMunbufferedTris base for assurance of the optical thickness (λ = 540 nm) in Synergy H4 multi-mode microplate peruser (BioTek Instruments, Winooski, VT, USA).

For series [1], the system named is BALB/3T3 (murine fibroblast). Kind of series: Anti-proliferative assay in vitro (SRB) on normal cell line BALB/3T3. It is filed as cell-based. The settings on record: Mus musculus, 72 h exposure, tested from 100 to 0.1 µg/mL, Nd: no detectable activity in the used concentrations, DMSO 1%, read-out: BALAB/3T3 IC50 ± SD. On the procedure: as §1, §2, §3, §4, §5

Where only a bound is given, the exact number is not on record here.

`CSC(=S)N/N=C(\C)c1sc2nc(-c3ccc(C)cc3)cn2c1C` [Compound 3, methyl 2-(1-(3-methyl-6-(p-tolyl)imidazo[2,1-b]thiazol-2-yl)ethylidene) hydrazinecarbodithioate]: the melting point fell in the range of 182 to 184 °C. Turning to `CC(=O)c1nn(-c2ccc(C)cc2)c(=NN=C(C)c2sc3nc(-c4ccc(C)cc4)cn3c2C)s1` [Compound 6a, 1-(5-((1-(3-Methyl-6-(p-tolyl)imidazo[2,1-b]thiazol-2-yl)ethylidene)hydrazono)-4-(p-tolyl)-4,5-dihydro-1,3,4-thiadiazol-2-yl)ethanone], the melting point lay in the range of 220 to 222 °C. The IC50 in the series with HepG2 cells amounted to 63.3 ± 12.8 µg/mL. In addition, the IC50 in series [1] was found to be 25.1 ± 12 µg/mL. Regarding `COc1ccc(-n2nc(C(C)=O)sc2=NN=C(C)c2sc3nc(-c4ccc(C)cc4)cn3c2C)cc1` [Compound 6b, 1-(4-(4-Methoxyphenyl)-5-((1-(3-methyl-6-(p-tolyl)imidazo[2,1-b]thiazol-2-yl)ethylidene) hydrazono)-4,5-dihydro-1,3,4-thiadiazol-2-yl)ethanone], the melting point was 216 to 218 °C. Moreover, the IC50 in the series with HepG2 cells was determined as 59.2 ± 9.27 µg/mL. Regarding `CC(=O)c1nn(-c2ccc(Cl)cc2)c(=NN=C(C)c2sc3nc(-c4ccc(C)cc4)cn3c2C)s1` [Compound 6c, 1-(4-(4-Chlorophenyl)-5-((1-(3-methyl-6-(p-tolyl)imidazo[2,1-b]thiazol-2-yl)ethylidene) hydrazono)-4,5-dihydro-1,3,4-thiadiazol-2-yl)ethanone], the melting point lay within 192 to 194 °C. In turn, `CCOC(=O)c1nn(-c2ccccc2)c(=NN=C(C)c2sc3nc(-c4ccc(C)cc4)cn3c2C)s1` [Compound 6d, Ethyl 5-((1-(3-methyl-6-(p-tolyl)imidazo[2,1-b]thiazol-2-yl)ethylidene)hydrazono)-4-phenyl-4,5-dihydro-1,3,4-thiadiazole-2-carboxylate] yielded a melting point of 235 to 237 °C. Further, the IC50 with HepG2 cells was 41.1 ± 8.32 µg/mL. With `CCOC(=O)c1nn(-c2ccc(C)cc2)c(=NN=C(C)c2sc3nc(-c4ccc(C)cc4)cn3c2C)s1` [Compound 6e, Ethyl 5-((1-(3-methyl-6-(p-tolyl)imidazo[2,1-b]thiazol-2-yl)ethylidene)hydrazono)-4-(p-tolyl)-4,5-dihydro-1,3,4-thiadiazole-2-carboxylate], the melting point is 117 to 119 °C. In turn, `CCOC(=O)c1nn(-c2ccc(Br)cc2)c(=NN=C(C)c2sc3nc(-c4ccc(C)cc4)cn3c2C)s1` [Compound 6f, Ethyl 4-(4-bromophenyl)-5-((1-(3-methyl-6-(p-tolyl)imidazo[2,1-b]thiazol-2-yl)ethylidene) hydrazono)-4,5-dihydro-1,3,4-thiadiazole-2-carboxylate] showed a melting point of 156 to 158 °C. Moreover, the IC50 in the series with HepG2 cells was determined as 57.5 ± 6.61 µg/mL. Consider `CC(=NN=c1sc(C(=O)Nc2ccccc2)nn1-c1ccccc1)c1sc2nc(-c3ccc(C)cc3)cn2c1C` [Compound 6g, 5-((1-(3-Methyl-6-(p-tolyl)imidazo[2,1-b]thiazol-2-yl)ethylidene)hydrazono)-N,4-diphenyl-4,5-dihydro-1,3,4-thiadiazole-2-carboxamide], for which the melting point fell in the range of 209 to 211 °C. Also, in the series on HepG2 cells, the IC50 is 33.2 ± 8.25 µg/mL. The IC50 in series [1] stood at 76.7 ± 4.14 µg/mL. `CC(=NN=c1sc(C(=O)Nc2ccccc2)nn1-c1ccc([N+](=O)[O-])cc1)c1sc2nc(-c3ccc(C)cc3)cn2c1C` [Compound 6h, 5-((1-(3-Methyl-6-(p-tolyl)imidazo[2,1-b]thiazol-2-yl)ethylidene)hydrazono)-4-(4-nitrophenyl)-N-phenyl-4,5-dihydro-1,3,4-thiadiazole-2-carboxamide] showed a melting point of 241 to 243 °C.

Molecule `CC(=NN=c1sc(-c2ccccc2)nn1-c1ccccc1)c1sc2nc(-c3ccc(C)cc3)cn2c1C` [Compound 6i, 2-(1-((3,5-Diphenyl-1,3,4-thiadiazol-2(3H)-ylidene)hydrazono)ethyl)-3-methyl-6-(p-tolyl) imidazo[2,1-b]thiazole] returned a melting point of 273 to 275 °C. The molecule `CC(=NN=c1sc(-c2ccccc2)nn1-c1cccc(-n2nc(-c3ccccc3)sc2=NN=C(C)c2sc3nc(-c4ccc(C)cc4)cn3c2C)c1)c1sc2nc(-c3ccc(C)cc3)cn2c1C` [Compound 10, 1,3-Bis(2-((1-(3-methyl-6-(p-tolyl)imidazo[2,1-b]thiazol-2-yl)ethylidene)hydrazono)-5-phenyl-1,3,4-thiadiazol-3(2H)-yl)benzene] registered a melting point of over 300 °C. In addition, the IC50 in the series on HepG2 cells was 23.5 ± 4.48 µg/mL. In series [1], the IC50 is 26.2 ± 3.21 µg/mL. Molecule `CC(=O)c1nn(-c2cccc(-n3nc(C(C)=O)s/c3=N\N=C(/C)c3sc4nc(-c5ccc(C)cc5)cn4c3C)c2)/c(=N/N=C(\C)c2sc3nc(-c4ccc(C)cc4)cn3c2C)s1` [Compound 11, 1,1’-(4,4’-(1,3-Phenylene)bis(5-((1-(3-methyl-6-(p-tolyl)imidazo[2,1-b]thiazol-2-yl)ethylidene)hydrazono)-4,5-dihydro-1,3,4-thiadiazole-4,2-diyl))diethanone] gave a melting point of 292 to 294 °C. With `CC(=O)c1nn(-c2ccc(S(=O)(=O)c3ccc(-n4nc(C(C)=O)s/c4=N\N=C(/C)c4sc5nc(-c6ccc(C)cc6)cn5c4C)cc3)cc2)/c(=N/N=C(\C)c2sc3nc(-c4ccc(C)cc4)cn3c2C)s1` [Compound 12, 1,1’-(4,4’-(Sulfonylbis(4,1-phenylene))bis(5-((1-(3-methyl-6-(p-tolyl)imidazo[2,1-b]thiazol-2-yl)ethylidene)hydrazono)-4,5-dihydro-1,3,4-thiadiazole-4,2-diyl))diethanone], the melting point was over 300 °C. Further, the IC50 in the series with HepG2 cells was determined as 12.7 ± 1.36 µg/mL. In addition, the IC50 in series [1] was 8.34 ± 1.81 µg/mL. Take `COc1cccc2c1C(=O)c1c(O)c3c(c(O)c1C2=O)C[C@@](O)(C(=O)CO)C[C@@H]3O[C@H]1C[C@H](N)[C@H](O)[C@H](C)O1` [Doxorubicin, reference compound]: the IC50 with HepG2 cells came to 3.56 ± 0.46 µg/mL; in series [1] it was 3.21 ± 0.32 µg/mL.
